PMC10536189 (Microorganisms, 2023)
Entries after “also recorded” stand apart in the source; their conditions may differ.

Test system: multidrug-resistant (MDR) Mycobacterium tuberculosis
Assay type: cell-based
Conditions: Peptide 14D at 1 µg/mL; low inoculum

With wkivfwwrr-CONH2 [Peptide 14D] the “Effect on growth of multidrug-resistant MTB” value was “reducing the lag time before growth starts; also recorded: increased growth”.
